Like-named read-outs stand apart in the source and are kept apart here.

One data set has as its system human erythrocytes. Nature of the data set: Hemolytic activity. Particulars: 1 h incubation at 37 °C, 50% hemolysis. Type of data set: cell-based. The procedure:
Erythrocytes were obtained from human blood (AB(IV) Rh+) by centrifugation with phosphate-buffered saline (PBS) (pH 7.4) at 4 °C for 5 min by 450 g on a LABOFUGE 400R centrifuge (Heraeus, Hanau, Germany) three times. Then, the erythrocytes residue was resuspended in ice cold phosphate saline buffer (pH 7.4) to a final optical density of 1.5 at 700 nm and kept on ice. For the hemolytic assay, 180 µL of erythrocyte suspension was mixed with 20 µL of test compound solution, as well as control, chitonoidoside L [33], in V-bottom 96-well plates. After 1 h of incubation at 37 °C, the plates were exposed to centrifugation for 10 min at 900 g in a laboratory LMC-3000 centrifuge (Biosan, Riga, Latvia). Then, 100 µL of supernatant was carefully decanted and transferred into new flat plates. The values of the lysis of the erythrocytes were found by measuring the concentration of hemoglobin in the supernatant with a Multiskan FC microplate photometer (Thermo Fisher Scientific, Waltham, MA, USA); λ = 570 nm. […] All the experiments were carried out in triple repetitions; p < 0.01.

A further data set concerns HL-60 cells. Nature of the data set: Cytotoxic activity (MTS assay). The data set is classed as cell-based, human. Particulars: HL-60, MTS, 24 h; read-out: Cytotoxicity, IC50 HL-60. The procedure:
Then, the cells were incubated with 10 µL MTS ([3-(4,5-dimethylthiazol-2-yl)-5-(3-carboxymethoxyphenyl)-2-(4-sulfophenyl)-2H-tetrazolium) for 4 h, and the absorbance in each well was determined at 490/630 nm with a PHERA star FS plate reader (BMG Labtech, Ortenberg, Germany). The experiments were conducted in triplicate.
(In general: Formazan colour is commonly taken as a measure of viable cells.)

For another data set, the system named is HEK293 cells. Nature of the data set: Cytotoxic activity (MTT assay). Type of data set: cell-based, human. Particulars: HEK293, MTT, 24 h; read-out: Cytotoxicity, IC50 HEK293. On the procedure:
(§1) After incubation, the glycosides with medium were replaced by 100 μL of fresh medium. Then, 10 μL of MTT (3-(4,5-dimethylthiazol-2-yl)-2,5-diphenyltetrazolium bromide) (Sigma-Aldrich, St. Louis, MO, USA) stock solution (5 mg/mL) was added to each well, followed by incubation of the microplate for 4 h. After this procedure, 100 μL of SDS-HCl solution (1 g SDS/10 mL d-H2O/17 μ[…] HCl) was added to each well and incubated for 18 h. The absorbance of the converted dye formazan was determined with a Multiskan FC microplate photometer (Thermo Fisher Scientific, Waltham, MA, USA) at 570 nm.

Another data set relates to MCF-7 cells. Nature of the data set: Cytotoxic activity (MTT assay). The data set is classed as cell-based, human. Particulars: MCF-7, MTT, 24 h; read-out: Cytotoxicity, IC50 MCF-7. The procedure: as §1
A further data set concerns T-47D cells. The data set is described as follows: Cytotoxic activity (MTT assay). The data set is classed as cell-based, human. Particulars: T-47D, MTT, 24 h; read-out: Cytotoxicity, IC50 T-47D. The procedure: as §1
In data set [1] the test system is MDA-MB-231 cells. Nature of the data set: Cytotoxic activity (MTT assay). Type of data set: cell-based, human. Particulars: for IC50: MDA-MB-231, MTT, 24 h, read-out: Cytotoxicity, IC50 MDA-MB-231. On the procedure:
as §1

The subject of data set [2] is MDA-MB-231 cells. Nature of the data set: Colony formation (clonogenic) assay. The data set is classed as cell-based, human. Particulars: MDA-MB-231, concentration 0.5 μM. The procedure:
The influence of glycosides on the proliferation of MDA-MB-231 cells was analyzed by clonogenic assay. Briefly, MDA-MB-231 cells were cultured on 6-well plates at a density of 1 × 10^3 cells per well in control media (MEM media, 10% FBS, 10,000 U/mL of penicillin and 10,000 μg/mL of streptomycin) or in media supplemented with different concentrations of glycosides. Cells were incubated for one week at 37 °C with 5% CO2 until the cells in the control plates formed colonies that were visible to the eye and were of a substantial size (at least 50 cells per colony). For fixation and staining, the media were removed and the cells were washed twice with PBS. The colonies were fixed with methanol for 25 min, then washed with PBS and stained with 0.5% crystal violet solution for 25 min at room temperature. The plates were then washed with water and air dried.

The subject of data set [3] is MDA-MB-231 cells. Nature of the data set: Wound scratch migration assay. The data set is classed as cell-based, human. Particulars: MDA-MB-231, 0.05 µM, 24 h. An excerpt:
To analyze the influence of the tested compounds on tumor cell migration, MDA-MB-231 cells attached to the plate’s plastic bottom were separated by a silicone insert from special migration plates (Culture-insert 2 Well 24, ibiTreat); then, the insert was removed, leaving a gap of 500 ± 50 μm (according to the manufacturer’s data) between the cells. The cells were washed twice by PBS to remove cell debris and floating cells and loaded with a fluorescent probe, a (5,6)-carboxyfluorescein succinimidyl ester (CFDA SE) dye (LumiTrace CFDA SE kit, Lumiprobe, Moscow, Russia). The initial solution of CFDA SE at a concentration of 5 mM in DMSO was dissolved in PBS to prepare a 10 μM solution and was added to the cells for 5 min at 37 °C; then, the cells were washed twice with PBS, and fresh culture medium was added. After that, the cells were treated with various concentrations of glycosides and left for 8 and 24 h. Cells treated with culture medium only were used as control. Cell migration into the wound area was then observed under a fluorescence microscope (MIB-2-FL, LOMO, Saint Peterburg, Russia) with an objective ×10 magnification.

With `CO[C@@H]1[C@@H](O)[C@H](O[C@@H]2[C@@H](O)[C@H](O[C@H]3[C@H](O)[C@@H](O[C@H]4OC[C@H](O)[C@H](O)[C@@H]4O)[C@H](O[C@H]4[C@H](O[C@H]5CC[C@]6(C)[C@@H]7CC[C@]89C(=O)O[C@@](C)(C[C@@H](O)CC(C)C)[C@H]8[C@@H](OC(C)=O)C[C@@]9(C)C7=CC[C@H]6C5(C)C)OC[C@@H](OS(=O)(=O)O)[C@@H]4O)O[C@@H]3C)OC[C@H]2O)O[C@H](CO)[C@H]1O` [frondoside D], the “ED50, Erythrocytes” value in the data set with human erythrocytes was found to be 9.22 ± 0.10 µM. The concentration for half-maximal inhibition (IC50) (usually the concentration that inhibits the measured activity by half) came out at 18.08 ± 0.08 µM in the data set on HL-60 cells; 9.45 ± 0.78 µM in the data set on HEK293 cells; 23.2 ± 0.92 µM in the data set with MCF-7 cells; 11.8 ± 1.1 µM in the data set on T-47D cells; 12 ± 1.28 µM with MDA-MB-231 cells [1].
Take `COC1C(O)C(CO)OC(OC2C(O)COC(OC3C(C)OC(OC4C(OC5CCC6(C)C7CCC89C(=O)OC(C)(CC(=O)CC(C)C)C8C(OC(C)=O)CC9(C)C7=CCC6C5(C)C)OCC(OS(=O)(=O)[O-])C4O)C(O)C3O)C2O)C1O.[Na+]` (centres unmarked) [okhotoside A1-1]: the “ED50, Erythrocytes” value with human erythrocytes is 0.75 ± 0.09 µM. Also, the IC50 in the data set on HL-60 cells was 2.52 ± 0.26 µM; with HEK293 cells, 3.17 ± 0.7 µM; in the data set on MCF-7 cells, 8.34 ± 0.12 µM; with T-47D cells it was 8.46 ± 0.65 µM; with MDA-MB-231 cells [1], 2.34 ± 0.53 µM. For the same compound, the EC50 – broadly, the concentration giving half of the maximal effect – in the data set on MDA-MB-231 cells [1] (MDA-MB-231, 24 h, read-out: Cytotoxic effect EC50 on MDA-MB-231, 24 h) came to 2.34 µM; in the data set with MDA-MB-231 cells [1] (MDA-MB-231, 48 h, read-out: Cytotoxic effect EC50 on MDA-MB-231, 48 h), 2.05 µM; in the data set on MDA-MB-231 cells [1] (MDA-MB-231, 72 h, read-out: Cytotoxic effect EC50 on MDA-MB-231, 72 h), 1.73 µM. Moreover, the “Inhibition of formation and growth of colonies, % of the control” value in the data set with MDA-MB-231 cells [2] was 70.76 ± 0.13%. The “Inhibition of migration in comparison with control” value with MDA-MB-231 cells [3] is given as 74.76 ± 4.41%.

Values taken from paper PMC10342010, “Djakonoviosides A, A1, A2, B1–B4 — Triterpene Monosulfated Tetra- and Pentaosides from the Sea Cucumber Cucumaria djakonovi: The First Finding of a Hemiketal Fragment in the Aglycones; Activity against Human Breast Cancer Cell Lines” (International Journal of Molecular Sciences, 2023).
